Results as given in patent EP4268823A1, “COMPOUND FOR TREATING NEUROINFLAMMATION” (Universitätsklinikum Hamburg-Eppendorf, priority 2022, dated 2023).

How the values were obtained:
primary neurons = assay: Cell death induction, dead neurons with CellTox green reagent; type: cell-based, mouse; conditions: 1 µM UNC0642 pre-treated 24 hours
Experimental: For primary cortical cultures pregnant C57BL/6J, or G9afl/fl;Snap25-Cre mice were euthanized. To ensure comparability between genotypes, only embryos from heterozygous breeding's were used. Brainstem tissue of each embryo for genotyping was reserved and cortices were isolated, dissociated and cells were plated at a density of 1 × 10^5 cells per 1 cm^2 on poly-D-lysine-coated wells (5 µM Sigma-Aldrich, cat. no. A-003-M). If not stated otherwise, cells were maintained in neurobasal plus medium (supplemented with B27 plus, penicillin, streptomycin and L-glutamine; Gibco, cat. no. A3582901) at 37°C, 5% CO^2 and a relative humidity of 98%, and treated with 1 µM cytarabine (Sigma-Aldrich, cat. no. BP383) at 1 day in vitro (div) to inhibit glial cell proliferation. If no cytarabine was applied cells were maintained in PNBM medium (supplemented with neural cell survival factor, gentamycin and L-glutamine; Lonza). Throughout, cultures after 14-23 div were used for experiments. G9a inhibitor UNC0642 was used in a concentration of 1 µM and cultures were pre-treated 24 hours before further experimental procedures.
Primary neurons were subjected to dedicated compounds initiating either apoptosis (stauro-sporine), necroptosis (TNF-α + LCL-161 + Z-VAD-FMK, or shikonin), or ferroptosis (RSL3, or erastin) for 48 h in G9afl/fl;Snap25-Cre cultures, or cultures pre-treated for 24 hours with 1 µM UNC0642. Together with the cell death inducing compounds, CellToxTM Green Cytotoxicity Assay (Promega) was added to primary neurons 1:2000. Before fixation with 4% paraformaldehyde, cells were counterstained with Hoechst […]. Neurons were imaged on a Zeiss LSM 700 confocal microscope using 20× magnification.

[1] = test system: ferroptosis-related genes; assay: mRNA expression of ferroptosis-related genes in erastin-treated hiPSC-neurons; type: cell-based; conditions: erastin-treated human neurons ± UNC0642
Text: Human iPSCs (ZIPi013-B) (83) were maintained under feeder-free conditions on Matrigel (Corning)-coated plates in mTeSR1 medium (Stem Cell Technologies, cat. no. 85850). For neuronal induction, iPSCs were dissociated with Accutase and seeded at a density of 3 × 10^6 cells per well on AggreWell800 plates (10,000 cells per embryoid body (EB), Stem Cell Technologies) in SMADi Neural Induction Medium (SMADi NIM, Stem Cell Technologies, cat. no. 08582) supplemented with […] (Stem Cell Technologies, cat. no. 72302). On day 6, EBs were harvested and cultivated on Matrigel-coated plates in SMADi NIM for 12 days. Newly formed neural rosettes were manually picked and cultured for another 4 days. In order to release neural precursor cells (NPCs), neural rosettes were dissociated with Accutase and were maintained for several passages at high density in Neural Progenitor Medium (Stem Cell Technologies, cat. no. 05833) on Matrigel-coated plates. HiPSC-derived NPCs were differentiated into neurons as previously described (84, 85) with some modifications. Briefly, NPCs were seeded at a density of 1 × 10^5 cells per cm^2 in Neural Progenitor Medium onto Matrigel-coated plates. […]
RNA was extracted using RNeasy Mini Kit (Qiagen) and subsequently reverse-transcribed to complementary DNA with the RevertAid H Minus First Strand cDNA Synthesis Kit (Thermo Fisher Scientific) according to the manufacturer's instructions. Gene expression was analyzed by real-time PCR performed in an ABI Prism 7900 HT Fast Real-Time PCR System (Applied Biosystems) using TaqMan Gene Expression Assays (Thermo Fisher Scientific). Gene expression was calculated as 2-ΔCt relative to Tbp as the endogenous control.

COc1cc2c(NC3CCN(C(C)C)CC3)nc(N3CCC(F)(F)CC3)nc2cc1OCCCN1CCCC1 [UNC0642, 2-(4,4-difluoropiperidin-1-yl)-6-methoxy-N-[1-(propan-2-yl)piperidin-4-yl]-7-[3-(pyrrolidin-1-yl)propoxy]quinazolin-4-amine]
ferroptosis (dead neurons) induced by RSL3 (primary neurons; 48 h inducer): substantially rescued | ferroptosis (dead neurons) induced by erastin (primary neurons; 48 h inducer): substantially rescued | necroptosis (dead neurons) (primary neurons; TNF-α + LCL-161 + Z-VAD-FMK, or shikonin, 48 h): neither apoptosis nor necroptosis was affected | apoptosis (dead neurons) (primary neurons; staurosporine 48 h): neither apoptosis nor necroptosis was affected | mRNA expression of GPX4 [1]: significant upregulation | mRNA expression of Gclc [1]: significant upregulation | mRNA expression of SLC7A11 [1]: highly upregulated
